Where two headings read alike, the source gives them in different places.
Tests used:
erythrocyte AChE [1] = molecular target: T1, erythrocyte AChE (Homo sapiens, UniProt P22303); set-up: from tissue; host or cells: human whole peripheral blood (erythrocytes), K2EDTA anticoagulant; method as in PMID 38008925; details: human blood; read-out: IC50, erythrocyte AChE inhibition; cited from earlier work
erythrocyte AChE [2] = molecular target: T1, erythrocyte AChE; details: cited from earlier work; for reported or expected adverse health outcome: ref Table S2
[3] = QSAR-based prediction; ref Punt et al. 2022; Moerenhout et al. 2024; cited from earlier work
erythrocyte AChE [4] = molecular target: T1, erythrocyte AChE; assay: Exposure Activity Ratio (EAR) and Dietary Comparator Ratio (DCR) calculation; set-up: from tissue; host or cells: human whole peripheral blood (erythrocytes), K2EDTA anticoagulant; details: for calculated DCR value / calculated EARtest value: human
Method: The DCR value for an exposure scenario was calculated as the ratio of EARtest and EARcomparator (eq 1). The EARtest is scenario-specific and was defined with the IC50 of the tested organophosphate oxon for in vitro erythrocyte AChE inhibition and the PBK model-simulated CBmaxoxon at the defined exposure level (eq 2).
The DCR-based predictions were evaluated by comparing the obtained DCR results with actual knowledge of the adverse health effects reported for the respective exposure scenarios. Adverse effects cannot be ruled out for human exposure scenarios with a DCR result greater than 1, while exposure scenarios with a DCR result less than or equal to 1 are considered to raise no safety concern.[18]−[20] Once validated as an adequate predicting tool, the DCR approach was applied for evaluating the safety of exposure scenarios, for which no information on the resulting toxic outcomes was reported at the defined dose levels for humans.

erythrocyte AChE [5] = molecular target: T1, erythrocyte AChE; assay: biochemical; format: biochemical; set-up: from tissue; host or cells: human whole peripheral blood (erythrocytes), K2EDTA anticoagulant
Method: Ethanol (UPLC/MS grade) was ordered from Biosolve (Valkenswaard, The Netherlands). Ultrapure water used for experiments was prepared with a Sartorius Arium Pro ultrapure water system (Göttingen, Germany). Human whole peripheral blood with K2EDTA as an anticoagulant was used for the in vitro AChE inhibition assay. K2EDTA acts as an inhibitor to the paraoxonase 1 (PON1) enzyme,[23] preventing the underestimation of the inhibition potential of organophosphate oxons due to the nontarget clearance by PON1 present in the blood samples.
Inhibition of erythrocyte AChE by the organophosphate oxon or the corresponding oxon metabolite of an organothiophosphate was measured in vitro using the method previously described.[12] The ethanolic stock solution of the test oxon was first diluted 100 times with sodium phosphate buffer (100 mM, pH 7.4), and 10 μL of the diluted solution was added to 90 μL of human whole blood sample in a 48-wells flat-bottom transparent plate (Greiner Bio-One, The Netherlands). After a 30 min incubation at room temperature, the blood samples were then diluted 20 times with ultrapure water containing 0.03% Triton-X 100 (v/v), and 20 μL of the Triton-diluted blood was incubated for 20 min following the addition of 460 μL of DTNB and 20 μL of ethopropazine (an inhibitor to plasma butyrylcholinesterase (BuChE)). After that, 100 μL of ATC was added (final concentrations of ethopropazine, DTNB, and ATC were 20 μM, 1 mM, and 1 mM, respectively), and the absorbance at 436 nm was measured continuously to detect the remaining AChE activity. Controls were carried out by replacing the test compound with sodium phosphate buffer to correct for any background absorbance.
The benchmark response (BMR) of 5% for erythrocyte AChE inhibition is a conservative end point for deriving an effect level, since regulatory bodies usually use a higher BMR (i.e., 10% or 20%) for risk assessment of acute OP pesticide exposure.[24],[25] The European Food Safety Authority (EFSA) Web tool (https://efsa.openanalytics.eu/) integrated with the R package PROAST (version 70.0) was employed for the BMC analysis (see Supporting Information).

[6] = human whole blood, BMC analysis, PROAST model averaging
[7] = 1 mg/kg BW single oral, a volunteer, ref APVMA. 2000 (original data of Brown. 1966)

T1 sequence (P22303 32-617 isoform P22303-2 limits assumed): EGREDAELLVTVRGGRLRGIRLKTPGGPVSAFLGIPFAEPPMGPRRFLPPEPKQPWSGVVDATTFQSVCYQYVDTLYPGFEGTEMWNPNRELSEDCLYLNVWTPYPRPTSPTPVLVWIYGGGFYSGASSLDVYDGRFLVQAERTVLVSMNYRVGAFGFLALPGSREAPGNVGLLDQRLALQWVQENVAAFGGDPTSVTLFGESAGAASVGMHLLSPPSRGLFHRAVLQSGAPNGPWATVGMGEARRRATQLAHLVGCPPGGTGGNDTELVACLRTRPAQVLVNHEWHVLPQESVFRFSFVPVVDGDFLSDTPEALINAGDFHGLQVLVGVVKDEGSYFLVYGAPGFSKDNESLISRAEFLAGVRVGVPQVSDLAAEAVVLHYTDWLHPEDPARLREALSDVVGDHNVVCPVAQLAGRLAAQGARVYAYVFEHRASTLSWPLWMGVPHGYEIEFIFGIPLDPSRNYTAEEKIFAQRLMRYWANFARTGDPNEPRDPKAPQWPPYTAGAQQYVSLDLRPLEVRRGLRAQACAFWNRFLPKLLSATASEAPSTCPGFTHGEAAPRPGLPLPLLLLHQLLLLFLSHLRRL

Structure (SMILES): COP(=O)(OC)Oc1ccc([N+](=O)[O-])c(C)c1 [fenitrooxon]
- IC50 (erythrocyte AChE [1]): 0.84 µM

Structure (SMILES): COP(=S)(OC)Oc1ccc([N+](=O)[O-])cc1 [methyl parathion]
- reported blood concentration (erythrocyte AChE [2]; 286 mg/kg BW (20 g) acute oral, person, ref Luzhnikov et al. 1977): 3 mg/L
- reported or expected adverse health outcome (erythrocyte AChE [2]; human, single oral 0.003 mg/kg BW, 0.003 mg/kg): negative
- reported or expected adverse health outcome (erythrocyte AChE [2]; human, single oral 0.003 mg/kg BW, listed as Methyl parathion, 0.003 mg/kg): No
- reported or expected adverse health outcome (erythrocyte AChE [2]; human, single oral 0.029 mg/kg BW, 0.029 mg/kg): negative
- reported or expected adverse health outcome (erythrocyte AChE [2]; human, single oral 0.029 mg/kg BW, listed as Methyl parathion, 0.029 mg/kg): No
- reported or expected adverse health outcome (erythrocyte AChE [2]; human, single oral 0.057 mg/kg BW, 0.057 mg/kg): negative
- reported or expected adverse health outcome (erythrocyte AChE [2]; human, single oral 0.057 mg/kg BW, listed as Methyl parathion, 0.057 mg/kg): No
- reported or expected adverse health outcome (erythrocyte AChE [2]; human, single oral 0.30 mg/kg BW, 0.3 mg/kg): negative
- reported or expected adverse health outcome (erythrocyte AChE [2]; human, single oral 0.30 mg/kg BW, listed as Methyl parathion, 0.3 mg/kg): No
- reported or expected adverse health outcome (erythrocyte AChE [2]; human, single oral 26 mg/kg BW, 26 mg/kg): positive
- reported or expected adverse health outcome (erythrocyte AChE [2]; human, single oral 26 mg/kg BW, listed as Methyl parathion, 26 mg/kg): Yes
- Oral absorption rate constant [3]: 0.58 h⁻¹
- calculated DCR value (erythrocyte AChE [4]; single oral 0.003 mg/kg BW): 0.092
- calculated EARtest value (erythrocyte AChE [4]; single oral 0.003 mg/kg BW): 3.6 × 10^–3
- calculated DCR value (erythrocyte AChE [4]; single oral 0.029 mg/kg BW): 0.89
- calculated EARtest value (erythrocyte AChE [4]; single oral 0.029 mg/kg BW): 0.035
- calculated DCR value (erythrocyte AChE [4]; single oral 0.057 mg/kg BW): 1.8
- calculated EARtest value (erythrocyte AChE [4]; single oral 0.057 mg/kg BW): 0.069
- calculated DCR value (erythrocyte AChE [4]; single oral 0.30 mg/kg BW): 9.2
- calculated EARtest value (erythrocyte AChE [4]; single oral 0.30 mg/kg BW): 0.36
- calculated DCR value (erythrocyte AChE [4]; single oral 26 mg/kg BW): 927
- calculated EARtest value (erythrocyte AChE [4]; single oral 26 mg/kg BW): 36.59

Structure (SMILES): CCOP(=O)(OCC)Oc1cc(C)nc(C(C)C)n1 [diazoxon]
- IC50 (erythrocyte AChE [5]): 1.82 µM

Structure (SMILES): CCCSP(=O)(OCC)Oc1ccc(Br)cc1Cl (stereo not shown) [profenofos]
- Reported concomitant effects (signs and symptoms) (erythrocyte AChE [2]; 1600 mg/kg BW (112 g) acute oral, person, ref Seno et al. 1998): Died
- reported or expected adverse health outcome (erythrocyte AChE [2]; human, single oral 1600 mg/kg BW, 1600 mg/kg): positive
- reported or expected adverse health outcome (erythrocyte AChE [2]; human, single oral 1600 mg/kg BW, listed as Profenofos, 1600 mg/kg): Yes
- Oral absorption rate constant [3]: 0.90 h⁻¹
- IC50 (erythrocyte AChE [5]): 94.5 µM
- calculated DCR value (erythrocyte AChE [4]; single oral 1600 mg/kg BW): 272
- calculated EARtest value (erythrocyte AChE [4]; single oral 1600 mg/kg BW): 10.75

Structure (SMILES): CCOP(=S)(OCC)Oc1nc(Cl)c(Cl)cc1Cl [chlorpyrifos]
- no-observed-adverse-effect level (NOAEL) for toxic signs and symptoms (erythrocyte AChE [2]; human volunteers, fasted overnight, single oral dose): 2 mg/kg BW
- inhibition of erythrocyte AChE (erythrocyte AChE [2]; human, in vivo, po, 2 mg/kg): 28%
- Erythrocyte AChE inhibition (erythrocyte AChE [2]; human, in vivo): 28%
- reported or expected adverse health outcome (erythrocyte AChE [2]; human, single oral 0.01 mg/kg BW, 0.01 mg/kg): negative
- reported or expected adverse health outcome (erythrocyte AChE [2]; human, single oral 0.01 mg/kg BW, listed as Chlorpyrifos, 0.01 mg/kg): No
- reported or expected adverse health outcome (erythrocyte AChE [2]; human, single oral 0.012 mg/kg BW, 0.012 mg/kg): negative
- reported or expected adverse health outcome (erythrocyte AChE [2]; human, single oral 0.012 mg/kg BW, listed as Chlorpyrifos, 0.012 mg/kg): No
- reported or expected adverse health outcome (erythrocyte AChE [2]; human, single oral 0.03 mg/kg BW, 0.03 mg/kg): negative
- reported or expected adverse health outcome (erythrocyte AChE [2]; human, single oral 0.03 mg/kg BW, listed as Chlorpyrifos, 0.03 mg/kg): No
- reported or expected adverse health outcome (erythrocyte AChE [2]; human, single oral 0.1 mg/kg BW, 0.1 mg/kg): negative
- reported or expected adverse health outcome (erythrocyte AChE [2]; human, single oral 0.1 mg/kg BW, listed as Chlorpyrifos, 0.1 mg/kg): No
- reported or expected adverse health outcome (erythrocyte AChE [2]; human, single oral 0.5 mg/kg BW, 0.5 mg/kg): negative
- reported or expected adverse health outcome (erythrocyte AChE [2]; human, single oral 0.5 mg/kg BW, listed as Chlorpyrifos, 0.5 mg/kg): No
- reported or expected adverse health outcome (erythrocyte AChE [2]; human, single oral 1 mg/kg BW, 1 mg/kg): negative
- reported or expected adverse health outcome (erythrocyte AChE [2]; human, single oral 1 mg/kg BW, listed as Chlorpyrifos, 1 mg/kg): No
- reported or expected adverse health outcome (erythrocyte AChE [2]; human, single oral 2 mg/kg BW, listed as Chlorpyrifos, 2 mg/kg): No
- reported or expected adverse health outcome (erythrocyte AChE [2]; human, single oral 214 mg/kg BW, 214 mg/kg): positive
- reported or expected adverse health outcome (erythrocyte AChE [2]; human, single oral 214 mg/kg BW, listed as Chlorpyrifos, 214 mg/kg): Yes
- reported or expected adverse health outcome (erythrocyte AChE [2]; human, single oral 300 mg/kg BW, 300 mg/kg): positive
- reported or expected adverse health outcome (erythrocyte AChE [2]; human, single oral 300 mg/kg BW, listed as Chlorpyrifos, 300 mg/kg): Yes
- Oral absorption rate constant [3]: 1.01 h⁻¹
- calculated DCR value (erythrocyte AChE [4]; single oral 0.01 mg/kg BW): 4.6 × 10^–3
- calculated EARtest value (erythrocyte AChE [4]; single oral 0.01 mg/kg BW): 1.8 × 10^–4
- calculated EARtest value (erythrocyte AChE [4]; single oral 0.012 mg/kg BW): 2.2 × 10^–4
- calculated DCR value (erythrocyte AChE [4]; single oral 0.03 mg/kg BW): 0.014
- calculated EARtest value (erythrocyte AChE [4]; single oral 0.03 mg/kg BW): 5.4 × 10^–4
- calculated DCR value (erythrocyte AChE [4]; single oral 0.1 mg/kg BW): 0.046
- calculated EARtest value (erythrocyte AChE [4]; single oral 0.1 mg/kg BW): 1.8 × 10^–3
- calculated DCR value (erythrocyte AChE [4]; single oral 0.5 mg/kg BW): 0.23
- calculated EARtest value (erythrocyte AChE [4]; single oral 0.5 mg/kg BW): 9.2 × 10^–3
- calculated DCR value (erythrocyte AChE [4]; single oral 1 mg/kg BW): 0.48
- calculated EARtest value (erythrocyte AChE [4]; single oral 1 mg/kg BW): 0.019
- calculated DCR value (erythrocyte AChE [4]; single oral 2 mg/kg BW): 1.0
- calculated EARtest value (erythrocyte AChE [4]; single oral 2 mg/kg BW): 0.040
- calculated DCR value (erythrocyte AChE [4]; single oral 214 mg/kg BW): 38
- calculated EARtest value (erythrocyte AChE [4]; single oral 214 mg/kg BW): 1.50
- calculated DCR value (erythrocyte AChE [4]; single oral 300 mg/kg BW): 40
- calculated EARtest value (erythrocyte AChE [4]; single oral 300 mg/kg BW): 1.58

Structure (SMILES): CCOP(=O)(OCC)Oc1nc(Cl)c(Cl)cc1Cl [chlorpyrifos oxon]
- BMCL05 (lower 95% confidence limit of benchmark concentration for 5% erythrocyte AChE inhibition) (erythrocyte AChE [5]; [6]): 0.015 µM
- BMCU05 (upper 95% confidence limit of benchmark concentration for 5% erythrocyte AChE inhibition) (erythrocyte AChE [5]; [6]): 0.10 µM
- EARcomparator (erythrocyte AChE [4]; BMCL05/IC50 of chlorpyrifos oxon): 0.039

Structure (SMILES): CCOP(=O)(OCC)OC(=CCl)c1ccc(Cl)cc1Cl [chlorfenvinphos]
- Reported concomitant effects (signs and symptoms) (erythrocyte AChE [2]; 0.04 mg/kg BW (3 mg), first dose of repeated exposure study, male volunteers, ref APVMA. 2000 (original data of Hunter et al. 1972)): No toxic signs was observed
- Erythrocyte AChE inhibition (erythrocyte AChE [2]; [7]): 40%
- Reported concomitant effects (signs and symptoms) (erythrocyte AChE [2]; [7]): no toxic signs
- Reported erythrocyte AChE activity/inhibition (erythrocyte AChE [2]; [7]): Decreased erythrocyte AChE
- reported or expected adverse health outcome (erythrocyte AChE [2]; human, single oral 0.04 mg/kg BW, 0.04 mg/kg): negative
- reported or expected adverse health outcome (erythrocyte AChE [2]; human, single oral 0.04 mg/kg BW, listed as Chlorfenvinphos, 0.04 mg/kg): No
- reported or expected adverse health outcome (erythrocyte AChE [2]; human, single oral 1 mg/kg BW, listed as Chlorfenvinphos, 1 mg/kg): No
- Oral absorption rate constant [3]: 0.81 h⁻¹
- calculated DCR value (erythrocyte AChE [4]; single oral 0.04 mg/kg BW): 3.8 × 10^–3
- calculated EARtest value (erythrocyte AChE [4]; single oral 0.04 mg/kg BW): 1.5 × 10^–4
- calculated EARtest value (erythrocyte AChE [4]; single oral 0.18 mg/kg BW): 6.8 × 10^–4
- calculated DCR value (erythrocyte AChE [4]; single oral 1 mg/kg BW): 0.098
- calculated EARtest value (erythrocyte AChE [4]; single oral 1 mg/kg BW): 3.9 × 10^–3

Reference: article PMC11966747, “Next Generation Risk Assessment of Acute Neurotoxicity from Organophosphate Exposures Using the In Vitro–In Silico Derived Dietary Comparator Ratio” (Environmental Science & Technology, 2025)
